For assay [1] the following is noted: reported in Non-Patent Document 1; cited from earlier work.
The subject of assay [2] is twitch response of the gastrocnemius muscle. Kind of assay: Evaluation of neuromuscular blocking effect (time to complete recovery of twitch response). It counts as in vivo, Male Sprague Dawley rats. The following applies: for time until the muscle contraction (twitch response) was completely recovered: rats under isoflurane, dose inducing 95-99.9% neuromuscular block (ED95-99.9) via right jugular vein, sciatic nerve stimulation 0.1 Hz; for duration of action relative to succinylcholine: rats, doses inducing 95-99.9% neuromuscular block. How it is done: Male Sprague Dawley rats (about 300 g body weight) were used in the experiment. Anesthesia was first induced by 4 to 5% isoflurane inhalation and then maintained by 2 to 3% isoflurane inhalation. A warming system was used to keep the body temperature at 36 to 37° C. Lidocaine was infiltrated into the incision site. Tracheostomy was performed and a 16G catheter was inserted to secure the airway. The animals were ventilated by isoflurane and oxygen inhalation using a rodent ventilator at a tidal volume of 10 mL/kg and a respiratory rate of 70/min. A […] catheter was indwelled in the right jugular vein for drug administration. A small slide electrode was attached to the sciatic nerve, and supramaximal stimulation was applied at a frequency of 0.1 Hz and a pulse width of 0.2 ms using an electrostimulator. Using a force transducer, the twitch response of the gastrocnemius muscle was captured, amplified, and recorded. After the amplitude of the twitch response stabilized, a dose of succinylcholine or the JH-cpd series (JH013, JH014) inducing 95-99.9% neuromuscular block was administered, and the time until the muscle contraction (twitch response) was completely recovered was measured.

As for `C[N+](C)(C)CCOC(=O)CCC(=O)OCC[N+](C)(C)C` [succinylcholine, reference compound], in assay [1], the “duration of action at clinical doses” value is reported as “approximately 10 minutes”. Also, the “time until the muscle contraction (twitch response) was completely recovered” value in assay [2] stood at 11 min.
Turning to `COc1ccc(CC2c3cc(OC)c(OC)cc3CC[N+]2(C)CCCOC(=O)/C=C/C(=O)OCC[N+](C)(C)C)cc1OC` (stereo not drawn) [JH013], in assay [2], the “time until the muscle contraction (twitch response) was completely recovered” value came to 5.5 min and the “duration of action relative to succinylcholine” value was “approximately half”.
The matching figures for `COc1ccc(CC2c3cc(OC)c(OC)cc3CC[N+]2(C)CCOC(=O)/C=C/C(=O)OCC[N+](C)(C)C)cc1OC` (stereo not drawn) [JH014]: 7.5 min and “approximately two-thirds”.

The values above are taken from patent publication US20250205221A1, “MUSCLE RELAXANT” (priority 2022, published 2025).
